Measured values reported in BindingDB's records for doi:10.1016/j.ejmech.2009.09.045 (Sri Venkateswara University, 2010).
pEC50: −log10 of the molar value.

Biological target: T1, Catalase (Rattus norvegicus, UniProt P04762)
T1 sequence (P04762 whole entry): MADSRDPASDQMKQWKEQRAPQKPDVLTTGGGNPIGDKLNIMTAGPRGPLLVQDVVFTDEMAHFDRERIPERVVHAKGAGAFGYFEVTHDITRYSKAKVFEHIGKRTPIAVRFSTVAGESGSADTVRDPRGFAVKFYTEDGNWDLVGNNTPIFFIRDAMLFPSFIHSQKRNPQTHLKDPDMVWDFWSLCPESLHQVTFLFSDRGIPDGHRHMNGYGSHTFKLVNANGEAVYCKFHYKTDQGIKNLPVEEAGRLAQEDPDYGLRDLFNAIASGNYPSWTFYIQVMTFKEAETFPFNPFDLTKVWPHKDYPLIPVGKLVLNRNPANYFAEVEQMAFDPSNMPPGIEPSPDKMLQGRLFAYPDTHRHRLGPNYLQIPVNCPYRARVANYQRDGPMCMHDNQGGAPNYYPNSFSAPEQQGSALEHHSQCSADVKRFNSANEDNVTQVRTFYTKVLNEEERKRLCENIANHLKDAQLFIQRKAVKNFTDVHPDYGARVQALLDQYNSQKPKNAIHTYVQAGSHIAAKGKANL
Test: Inhibition of catalase in Wistar rat brain

SMILES	pEC50
COc1ccc2c3c1O[C@H]1C[C@@H](OP(=O)(Oc4ccc([N+](=O)[O-])cc4)OP(=O)(O)O)C=C[C@@]31CCN(C)C2 (some centres not stated)	5.29
COc1ccc2c3c1O[C@H]1C[C@@H](OP(=O)(OCCO)N(CCCl)CCCl)C=C[C@@]31CCN(C)C2 (some centres not stated)	5.39
Cc1c(C)c2c(c(C)c1O)CC[C@@](C)(CCC[C@H](C)CCC[C@H](C)CCCC(C)C)O2 [CHEBI:18145]	5.46
COc1ccc2c3c1O[C@H]1C[C@@H](OP(=O)(OCCO)Oc4ccc([N+](=O)[O-])cc4)C=C[C@@]31CCN(C)C2 (some centres not stated)	5.21
COc1ccc2c3c1O[C@H]1C[C@@H](OP(=O)(NCCO)N(CCCl)CCCl)C=C[C@@]31CCN(C)C2 (some centres not stated)	5.55
COc1ccc2c3c1O[C@H]1C[C@@H](OP(=O)(NCCO)Oc4ccc([N+](=O)[O-])cc4)C=C[C@@]31CCN(C)C2 (some centres not stated)	5.03
COc1ccc2c3c1O[C@H]1C[C@@H](O)C=C[C@@]31CCN(C)C2 [galantamine]	4.75
COc1ccc2c3c1O[C@H]1C[C@@H](OP(=O)(SCCO)N(CCCl)CCCl)C=C[C@@]31CCN(C)C2 (some centres not stated)	5.52
COc1ccc2c3c1O[C@H]1C[C@@H](OP(=O)(Oc4ccc([N+](=O)[O-])cc4)SCCO)C=C[C@@]31CCN(C)C2 (some centres not stated)	5.11
COc1ccc2c3c1O[C@H]1C[C@@H](OP(=O)(NCCN)Oc4ccc([N+](=O)[O-])cc4)C=C[C@@]31CCN(C)C2 (some centres not stated)	5.47
COc1ccc2c3c1O[C@H]1C[C@@H](OP(=O)(OP(=O)(O)O)N(CCCl)CCCl)C=C[C@@]31CCN(C)C2 (some centres not stated)	5.42
COc1ccc2c3c1O[C@H]1C[C@@H](OP(=O)(NCCN)N(CCCl)CCCl)C=C[C@@]31CCN(C)C2 (some centres not stated)	5.29
